From PubChem BioAssay (NCI)
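Dose response: 5 concentrations. Exposure: 48 h. Format: 96-well plates. Endpoint: linear interpolation; highest concentration if not reached. GI50 marks 50% less growth. Definition used: TGI = concentration required for complete inhibition of growth.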 Where a SMILES comes first, the peptide text is derived from it. [ ]: non-standard residue; d: D form. Ac5c = NC1(C(=O)O)CCCC1

Assays:
Assay in all cases: inhibition of tumour cell growth, NCI panel, 48 h
CAKI-1 renal = system: CAKI-1 renal
K-562 leukemia = system: K-562 leukemia
NCI-H460 lung = system: NCI-H460 lung
OVCAR-3 ovarian = system: OVCAR-3 ovarian
RPMI-8226 leukemia = system: RPMI-8226 leukemia
RXF 393 renal = system: RXF 393 renal
SK-MEL-2 melanoma = system: SK-MEL-2 melanoma
SR leukemia = system: SR leukemia
U251 CNS = system: U251 CNS
UACC-62 melanoma = system: UACC-62 melanoma

SMILES | TGI (CAKI-1 renal) [µM] | TGI (K-562 leukemia) [µM] | TGI (NCI-H460 lung) [µM] | TGI (OVCAR-3 ovarian) [µM] | TGI (RPMI-8226 leukemia) [µM] | TGI (RXF 393 renal) [µM] | TGI (SK-MEL-2 melanoma) [µM] | TGI (SR leukemia) [µM] | TGI (U251 CNS) [µM] | TGI (UACC-62 melanoma) [µM] | GI50 (CAKI-1 renal) [µM] | GI50 (K-562 leukemia) [µM] | GI50 (NCI-H460 lung) [µM] | GI50 (OVCAR-3 ovarian) [µM] | GI50 (RPMI-8226 leukemia) [µM] | GI50 (RXF 393 renal) [µM] | GI50 (SK-MEL-2 melanoma) [µM] | GI50 (SR leukemia) [µM] | GI50 (U251 CNS) [µM] | GI50 (UACC-62 melanoma) [µM]
NC1(C(=O)NC2(C(=O)O)CCCC2)CCCC1 (H-[Ac5c]-[Ac5c]-OH) | > 100 | > 100 | > 100 | > 100 | > 100 | > 100 | > 100 | > 100 | > 100 | > 100 |  |  |  |  |  |  |  |  |  | 
CCCCCCCCC[C@@H]1CC(=O)OCC2OC(O[C@H](CCCCCCCCC)CC(=O)OCC3OC(O[C@H](CCCCCCCCC)CC(=O)OCC4OC(O1)C(O)C(O)C4O)C(O)C(O)C3O)C(O)C(O)C2O (stereo partly drawn) | 14.9 | 15.1 | 17.3 | 32.1 | 32.7 | 30.9 | 22.3 | 20.6 | 21.4 | 28.6 |  |  |  |  |  |  |  |  |  | 
COc1cc(OC)c(/C=C/S(=O)(=O)Cc2cnc(OC)c(N)c2)c(OC)c1 | > 100 | > 100 | > 100 | > 100 | > 100 | > 100 | > 100 | > 100 | > 100 | > 100 | < 0.0177 | < 0.013 | < 0.02 | 0.0264 | < 0.0206 | < 0.01 | < 0.01 | < 0.0143 | < 0.0224 | < 0.01
O=S(=O)(NC1=NCCN1C(=S)SN1CCn2c1nsc2=S)c1ccc(Br)cc1 | > 100 | 83.2 | > 100 | > 100 | 37.2 | 51.4 | 46.4 | 74.1 | > 100 | 94.3 | 12.6 | 24.6 | 38.9 | 23.8 | 1.86 | 17.8 | 18.7 | 24.2 | 38.9 | 25.2
CC1=C(C(=O)Nc2ccccc2C)C(c2ccc(Cl)c(Cl)c2)C(C(=O)Nc2ccccc2C)=C(C)N1 | > 100 | 79.8 | 36.4 | 49.8 | 53.7 | 41.6 | 33.6 | 36.8 | 40.5 | 39.2 |  |  |  |  |  |  |  |  |  | 
COC(=O)C1C(C(=O)OC)C2(OC)c3ccccc3-c3ccccc3C12 (stereo not drawn) | > 100 | 76.9 | > 100 | > 100 | 71.8 | > 100 | 54.5 | 42 | > 100 | > 100 |  |  |  |  |  |  |  |  |  | 
CC(=O)CC(=O)Nc1ccc2ccccc2c1 | > 100 | > 100 | > 100 | > 100 | > 100 | > 100 | > 100 | > 100 | > 100 | > 100 |  |  |  |  |  |  |  |  |  | 
O=[N+]([O-])c1cc(Cl)c(Cl)c([N+](=O)[O-])c1Cl | 0.36 | > 100 | > 100 | 3.07 | 2.61 | 3.25 | 3.37 | 4.93 | 2.61 | 4.35 | 0.184 | 0.353 | 3.3 | 1.69 | 0.422 | 1.82 | 1.8 | 0.538 | 1.03 | 1.94
O=C1c2ccccc2C(=O)N1CCCSc1ccccc1 | > 100 | > 100 | > 100 | > 100 | > 100 | > 100 | > 100 | > 100 | > 100 | > 100 |  |  |  |  |  |  |  |  |  | 
CC[C@H](NC(=O)[C@H](C)NC)C(=O)N1C[C@@H](O)C[C@H]1Cc1c(-c2[nH]c3cc(F)ccc3c2C[C@@H]2C[C@H](O)CN2C(=O)[C@H](CC)NC(=O)[C@H](C)NC)[nH]c2cc(F)ccc12 | > 100 | > 100 | > 100 | > 100 | 98 | > 20.1 | > 100 | > 100 | > 100 | > 100 | > 100 | 47.3 | > 100 | > 100 | 12.8 | 2.27 | 6.01 | 15.5 | 93.2 | > 100
ClCc1cccc(Cn2cnc3c(NC45CC6CC(CC(C6)C4)C5)ncnc32)c1 | 33.2 | 29.4 | 43 | 35.9 | > 53.2 | 36.7 | 48.1 | 18.9 | 30.8 | 36.5 | 16.8 | 1.89 | 16 | 17.6 | 10.8 | 11.4 | 16.7 |  | 14.8 | 16.3
Cn1ccnc1CC(C)(O)c1ccccc1 (stereo not drawn) | > 100 | > 100 | > 100 | > 100 | > 100 | > 100 | > 100 | > 100 | > 100 | > 100 |  |  |  |  |  |  |  |  |  | 
Cc1nc2sc(C(=O)Nc3cccc(Cl)c3C)c(N)c2cc1C(=O)/C=C/c1ccccc1 | 1.17 | > 50 | 1.74 | 0.737 | 0.465 | 0.801 | 8.61 |  | 0.981 | 1.91 | 0.417 | 0.251 | 0.424 | 0.199 | 0.14 | 0.206 | 0.304 | 0.188 | 0.252 | 0.303
CC(C)CS(=O)(=O)/C(=C(\c1ccc(Br)cc1)S(=O)(=O)CC(C)C)c1ccc(Br)cc1 | > 100 | > 100 | > 100 | > 100 | > 100 | > 100 | > 100 | > 100 | > 100 | > 100 |  |  |  |  |  |  |  |  |  | 
COc1cc(Nc2nccc(Nc3ccc4c(C)[nH]nc4c3)n2)cc(OC)c1OC | 4.62 | > 25 | 5.3 | 7.54 | 13.2 | 3.21 | 5.09 | > 15.3 | 17.8 | 4.82 | 1.05 | 1.4 | 1.29 | 2.5 | 5.21 | 0.683 | 1.23 | 1.42 | 3.92 | 1.08
CCOC(=O)Nc1nc2ccc(Cn3cccc3)cc2[nH]1 | > 100 | > 100 | > 100 | 6.3 | > 100 | > 22.3 | > 100 | > 36.2 | > 64.8 | > 100 |  |  |  |  |  |  |  |  |  | 
